The values that follow come from US8969332B2, “Aryloxy dihalopropenyl ether compounds and uses thereof” (Sinochem Corporation, priority 2011, dated 2015).

As a reminder, the mortality is the percentage killed.

For this assay, the system named is beet armyworm. Briefly: Insecticidal activity against beet armyworm (24 well-plate artificial diet emulsion method). Type of assay: in vivo. The note with it: Spodoptera exigua, 72 h, read-out: Mortality of beet armyworm (%). How it is done:
Compounds were dissolved in mixed solvent (acetone:methanol=1:1), and diluted to required concentration with water containing 0.1% of tweed 80.
24 well-plate artificial diet emulsion method: artificial food was added to each well of the 24 well-plate, after the artificial food was cooled, the prepared solution were added into the 24 well-plate according to the experimental design by order of chemical concentrations from low to high, by gently shaking the even emulsion film can be formed on the surface of the diet. 24 neat and healthy larvae were put into the 24 well-plate (one larvae each well) after the film was air-dried and 3 replicates were set for each treatment. Then the insects were maintained in observation room (25° C., 60˜70% R.H.). Scores were conducted and mortalities were calculated after 72 h.

As for `FC(F)(F)c1ccc(Oc2ccc(OCCCOc3c(Cl)cc(OCC=C(Cl)Cl)cc3Cl)cc2)nc1` [Compound 1], for the setting “2.5 mg/L”, the mortality at 2.5 µg/mL came to 47.8%. Also, the mortality at 10 µg/mL (10 mg/L) turned out to be 100%.
